From paper PMC6131539, “Behavioral Effects of a Potential Novel TAAR1 Antagonist” (Frontiers in Pharmacology, 2018)

Tests used:
[1] = system: WT littermates (C57BL/6J × 129S2/Sv); test: Cocaine-induced locomotor activity, co-injection, WT littermates; format: in vivo, mice; conditions: 5, 15 and 25 mg/kg co-injected with cocaine 10 mg/kg
Method: The Taarl^-/- (TAAR1-KO) mice were obtained from Lundbeck ([Wolinsky et al., 2007]). All wild type (WT) and TAAR1-KO mice used for experiments were generated from TAAR1-KO heterozygous mice in a C57BL/6J x 129S1/Sv mixed background.
(§1) Experimentally naïve mice, of at least 12 weeks of age, were used for all behavioral experiments. The mice were randomly assigned to treatment or control groups, balanced by sex and weight. Locomotor activity was assessed using the automated locomotor analysis monitors (Omnitech Electronics, Columbus, OH, United States). The apparatus included four open field monitors. Each Open Field monitor consisted of sets of 16 light beams arrayed in the horizontal X and Y axes. The hardware detected beams broken by the animal, which allowed the software to determine the location of the mouse in the cage. Total distance covered by mice was used to characterize locomotor activity of the animals. The monitors were divided into four compartments (20 cm × 20 cm). Animals were tested individually for defined periods with 5-min intervals. The mice were first weighed and then placed into the apparatus, allowing for 30 min habituation. […] The locomotor activity was then measured for additional 1 h. […]
The locomotor activity was assessed for 60 min following the injection. […]

VTA dopamine neurons = test: Electrophysiology: spontaneous firing of VTA dopamine neurons in slices; format: cell-based, C57Bl/6J mice; conditions: 100 μM, bath applied 5 min; percentage of baseline
Method: All electrophysiological recordings were performed in slice preparations from C57Bl/6J mice (P21-P30). Briefly, mice were anaesthetized with isoflurane and transcardially perfused with an ice-cold sucrose solution containing (in mM): 50 sucrose, 26.2 NaHCO3, 1.25 glucose, 4.9 MgCl2, 3 kynurenic acid, 0.1 CaCl2, and 1.32 ascorbic acid in bicarbonate-buffered solution (aCSF, described below). Mice were then decapitated and brains were extracted. […] Cells were visualized on an upright microscope using “Dodt-type” gradient contrast infrared optics ([Dodt et al., 2002]) and whole-cell recordings were made using a MultiClamp 700B amplifier (Axon Instruments, Union City, CA, United States). Recording electrodes (3–5 MΩ) were filled with (in mM): 136 potassium-D-gluconate, 4 MgCl2, 1.1 HEPES, 5, EGTA, 10 sodium creatine phosphate, 3.4 Mg-ATP, and 0.1 Na2GTP. […] Spontaneous firing activity was recorded in current-clamp mode. […] Firing data for all neurons was analyzed with the MiniAnalysis program (Synaptosoft) using the same criteria. Drug-induced changes in firing are expressed as a percentage of baseline. Drug effects were calculated by comparing the response during the baseline/pre-drug period to the response 5 min after onset of drug administration. […] We therefore assessed the effects of compound 22 on firing rate of dopamine neurons. […]

C57BL/6J mice = test: Stereotypic counts, co-injection with amphetamine, C57BL/6J mice; format: in vivo; conditions: 5 and 20 mg/kg co-administered with amphetamine 2 mg/kg; sum over 60 min
Method: as §1
(A) Wild type C57BL/6J mice were first habituated for 30 min followed by the co-injection of amphetamine (2 mg/kg) and saline or compound 22 at doses 5, 15, 20, 25, 30, and 50 mg/kg. The locomotor activity was assessed for 60 min after the injection. Sum of stereotypic counts assessed over 60 min after the injection of amphetamine and compound 22. […] The locomotor activity was assessed for 60 min after the injection. […]

## Clc1ccc(CNCc2ccc(Cn3cncn3)cc2)c(Cl)c1 [compound 22]
[1]
  effect on locomotor stimulating effects of cocaine: significantly potentiate
VTA dopamine neurons
  increase in firing rate of dopaminergic neurons from VTA: 88%
C57BL/6J mice
  stereotypic counts: statistically significant increase in stereotypic counts
